Measured values: patent US20100242341A1, “CORROSION AND MICROBIAL CONTROL IN HYDROCARBONACEOUS COMPOSITIONS” (priority 2007, published 2010)

Key:
Assay type in all cases: cell-based
[1] = tested on: Hormoconis resinae ATCC# 20495; test: Microbial resistance of fuel, plate count
Method: (§1) Bacteria. Pseudomonas aeruginosa ATCC# 33988, Yeast: Yarrowia tropicalis ATCC# 48138, and Mold: Hormoconis resinae ATCC# 20495, are sub cultured in Bushnell-Haas broth, and used for the mixed inoculum. The organism concentrations in the mixed inoculum are as follows: Ps. aeruginosa-4.8×10^8 cfu/mL; Y. tropicalis-2.2×10^7 cfu/mL; H. resinae-6.3×10^7 cfu/mL
(§2) Testing is carried out in glass bottles with bakelite screw tops for four weeks. For each fuel sample, the aminoalcohol and then the biocide when present are added at the desired loadings to 130 mL of either diesel or biodiesel fuel with agitation for 5 min. Bushnell-Haas broth (24 mL) is added as the aqueous phase below the diesel fuel. One mL of the mixed inoculum is added. The samples are mixed weekly by turning the bottle upside down 5 times. The organism count listed for day 0 represents the initial organism populations detected in the water bottom after mixing the water bottom and the fuel.
(§3) Microbial survival is measured using the plate count method. Tryptic soy agar is used for Pseudomonas aeruginosa, and Sabouraud dextrose agar with 0.5 ug/ml gentamycin for Yarrowia tropicalis, and bacteriological grade agar 1.5%, with 0.01% potassium tellurite for Hormoconis resinae. Bacteria are incubated at 37° C. for 48 hours, and fungi at 25° C. for 5-7 days.

[2] = tested on: Pseudomonas aeruginosa ATCC# 33988; test: Microbial resistance of fuel, plate count
Method: as §1, §2, §3

[3] = tested on: Yarrowia tropicalis ATCC# 48138; test: Microbial resistance of fuel, plate count
Method: as §1, §2, §3

[4] = tested on: mixed inoculum (Ps. aeruginosa, Y. tropicalis, H. resinae); test: Microbial resistance of fuel, mixed inoculum (overall statements); details: diesel fuel
Method: as §1, §2, §3

[5] = diesel, aminoalcohol 1500 ppm, Day 0
[6] = diesel, aminoalcohol 1500 ppm, Wk 1
[7] = diesel, aminoalcohol 1500 ppm, Wk 2
[8] = diesel, aminoalcohol 1500 ppm, Wk 3
[9] = diesel, aminoalcohol 1500 ppm, Wk 4
[10] = diesel, aminoalcohol 3000 ppm, Day 0
[11] = diesel, aminoalcohol 3000 ppm, Wk 1
[12] = diesel, aminoalcohol 3000 ppm, Wk 2
[13] = diesel, aminoalcohol 3000 ppm, Wk 3
[14] = diesel, aminoalcohol 3000 ppm, Wk 4
[15] = biodiesel, 3A40 1500 ppm, Week 1
[16] = biodiesel, 3A40 1500 ppm, Week 2
[17] = biodiesel, 3A40 1500 ppm, Week 3
[18] = biodiesel, 3A40 1500 ppm, Week 4
[19] = biodiesel, 3A40 3000 ppm, Week 1
[20] = biodiesel, 3A40 3000 ppm, Week 2
[21] = biodiesel, 3A40 3000 ppm, Week 3
[22] = biodiesel, 3A40 3000 ppm, Week 4

CC(C)(N)CO [AMP, 2-Amino-2-methyl-1-propanol, reference compound]
H. resinae count [1, 5]: 4.2E5
H. resinae count [1, 6]: 3.0E5
H. resinae count [1, 7]: 6.4E5
H. resinae count [1, 8]: 7.4E5
H. resinae count [1, 9]: 1.8E6
H. resinae count [1, 10]: 4.2E5
H. resinae count [1, 11]: 1.2E5
H. resinae count [1, 12]: 4.5E5
H. resinae count [1, 13]: 5.8E5
H. resinae count [1, 14]: 3.3E6
Ps. aeruginosa count [2, 5]: 1.4E6
Ps. aeruginosa count [2, 6]: 8.7E5
Ps. aeruginosa count [2, 7]: 2.3E6
Ps. aeruginosa count [2, 8]: 4.4E6
Ps. aeruginosa count [2, 9]: 1.2E7
Ps. aeruginosa count [2, 10]: 1.4E6
Ps. aeruginosa count [2, 11]: 2.2E6
Ps. aeruginosa count [2, 12]: 4.0E6
Ps. aeruginosa count [2, 13]: 6.0E6
Ps. aeruginosa count [2, 14]: 4.2E7
Y. tropicalis count [3, 5]: 3.3E5
Y. tropicalis count [3, 6]: 1.3E5
Y. tropicalis count [3, 7]: 7.2E5
Y. tropicalis count [3, 8]: 1.3E6
Y. tropicalis count [3, 9]: 7.0E6
Y. tropicalis count [3, 10]: 3.3E5
Y. tropicalis count [3, 11]: 9.0E4
Y. tropicalis count [3, 12]: 2.3E5
Y. tropicalis count [3, 13]: 5.2E5
Y. tropicalis count [3, 14]: 4.3E6

CCCCC(O)C(N)CC (centres unmarked) [Example 3A4O, 3-amino-4-octanol]
H. resinae count [1, 15]: <1.0E2
H. resinae count [1, 16]: <1.0E2
H. resinae count [1, 17]: <1.0E2
H. resinae count [1, 18]: <1.0E2
H. resinae count [1, 19]: <1.0E2
H. resinae count [1, 20]: <1.0E2
H. resinae count [1, 21]: <1.0E2
H. resinae count [1, 22]: <1.0E2
H. resinae count [1, 5]: 4.2E5
H. resinae count [1, 6]: 2.7E5
H. resinae count [1, 7]: 3.8E5
H. resinae count [1, 8]: 7.7E5
H. resinae count [1, 9]: 4.4E6
H. resinae count [1, 10]: 4.2E5
H. resinae count [1, 11]: 3.5E5
H. resinae count [1, 12]: 6.7E5
H. resinae count [1, 13]: 8.2E5
H. resinae count [1, 14]: 6.0E6
Ps. aeruginosa count [2, 15]: <1.0E2
Ps. aeruginosa count [2, 16]: <1.0E2
Ps. aeruginosa count [2, 17]: <1.0E2
Ps. aeruginosa count [2, 18]: <1.0E2
Ps. aeruginosa count [2, 19]: <1.0E2
Ps. aeruginosa count [2, 20]: <1.0E2
Ps. aeruginosa count [2, 21]: <1.0E2
Ps. aeruginosa count [2, 22]: <1.0E2
synergy with biocide ([2]; diesel fuel, with BIT, against Ps. Aeruginosa (FIG. 3)): not significant
Ps. aeruginosa count [2, 5]: 1.4E6
Ps. aeruginosa count [2, 6]: 1.7E6
Ps. aeruginosa count [2, 7]: 4.2E6
Ps. aeruginosa count [2, 8]: 7.3E6
Ps. aeruginosa count [2, 9]: 4.8E7
Ps. aeruginosa count [2, 10]: 1.4E6
Ps. aeruginosa count [2, 11]: 8.7E5
Ps. aeruginosa count [2, 12]: 2.0E6
Ps. aeruginosa count [2, 13]: 5.7E6
Ps. aeruginosa count [2, 14]: 2.3E7
Y. tropicalis count [3, 15]: <1.0E2
Y. tropicalis count [3, 16]: <1.0E2
Y. tropicalis count [3, 17]: <1.0E2
Y. tropicalis count [3, 18]: <1.0E2
Y. tropicalis count [3, 19]: <1.0E2
Y. tropicalis count [3, 20]: <1.0E2
Y. tropicalis count [3, 21]: <1.0E2
Y. tropicalis count [3, 22]: <1.0E2
synergy with biocide ([3]; diesel fuel, with BIT, Y. tropicalis): evident
Y. tropicalis count [3, 5]: 3.3E5
Y. tropicalis count [3, 6]: 1.1E5
Y. tropicalis count [3, 7]: 8.0E5
Y. tropicalis count [3, 8]: 2.2E6
Y. tropicalis count [3, 9]: 8.3E6
Y. tropicalis count [3, 10]: 3.3E5
Y. tropicalis count [3, 11]: 2.0E5
Y. tropicalis count [3, 12]: 6.3E5
Y. tropicalis count [3, 13]: 3.0E6
Y. tropicalis count [3, 14]: 1.2E7
synergy with biocide ([4]; with FUELSAVER (FIG. 1)): particularly synergistic
synergy with biocide ([4]; with Kathon (CMIT/MIT) (FIG. 2)): more evident early on in the testing and then appears to taper off with time
synergy with biocide ([4]; with the three biocides evaluated): Synergy, however, is observed
